Source: patent US20260356830A1, “COMPOUNDS FOR MODULATING RET PROTEIN” (Bristol-Myers Squibb Company, priority 2022, published 2026)

Biological target: T1, CCDC6-RET (Homo sapiens, UniProt P07949+Q16204+Q96SW2)
T1 construct: CCDC6 (natural N-terminal fusion partner, UniProt Q16204); endogenous in cells; host or cells: TPC-1 (parental, papillary thyroid carcinoma)
Assay: Cellular RET degradation, AlphaLISA, TPC-1 cell line
Type: cell-based
Conditions: for Dmax: TPC1, human, 24 h, read-out: Cell Density TPC-1/CCDC6-RET Ymax %; for DC50: read-out: Cell Density TPC-1/CCDC6-RET DC50, half-maximal degradation concentration, TPC-1 (CCDC6-RET), 24 hrs
Method: Cellular RET degradation compound potency was determined using the bead-based luminescent amplification assay-AlphaLISA Surefire Ultra Detection Kit (Perkin-Elmer). The CCDC6-RET fusion expressing papillary thyroid carcinoma (TPC-1) cell line was selected for screening of potential degraders: Parental (TPC-1/CCDC6-RET). Cells were plated in 384 well culture plates (Greiner Bio-One) at 10,000 cells/well in 50 ul/well DMEM (Fisher Scientific) with 2% FBS serum (Gibco). […] Low normalization wells were media only and high normalization wells were cells treated with DMSO only. Treated cell plates were placed in an incubator at 37 °C and 5% CO2 for 24 hrs. At 24 hrs, cell media was removed by a FELIX automated liquid hander (Analytik Jena) and 25 ul of cell lysis buffer (provided in AlphaLisa kit) was added to each well. […] cell lysate were transferred into a 384-well microplate (Perkin Elmer) before addition of 2.5 ul AlphaLISA Acceptor Bead mix. The plates were sealed and kept at room temperature for 1 hr before addition of donor bead mixture. Donor bead addition was performed in the dark and incubated for >1 hr before AlphaLISA luminescence was measured on an Envision plate reader with an Alphascreen aperture at RT (excitation 680 nm, emission 615 nm). RET protein abundance (and therefore degradation) directly corresponds to luminescence intensity.
Intensities were normalized relative to the average values from 16 wells containing media alone (blank-low) and 16 wells containing cells +DMSO (high). % Degradation for each well was determined using the standard equation, where
DC50 (IC50) values for each compound tested are calculated by analyzing plots of % degradation versus compound concentration, and fitting to the standard 4-parameter logistic curve where,
DC50 values are calculated according to the relationship,
Compound replicates were performed in independent assays. Maximum degradation (YMax) was defined as the maximal % degradation value from the 4-parameter logistic equation, as previously described.

T1 sequence (Q16204+P07949 fused): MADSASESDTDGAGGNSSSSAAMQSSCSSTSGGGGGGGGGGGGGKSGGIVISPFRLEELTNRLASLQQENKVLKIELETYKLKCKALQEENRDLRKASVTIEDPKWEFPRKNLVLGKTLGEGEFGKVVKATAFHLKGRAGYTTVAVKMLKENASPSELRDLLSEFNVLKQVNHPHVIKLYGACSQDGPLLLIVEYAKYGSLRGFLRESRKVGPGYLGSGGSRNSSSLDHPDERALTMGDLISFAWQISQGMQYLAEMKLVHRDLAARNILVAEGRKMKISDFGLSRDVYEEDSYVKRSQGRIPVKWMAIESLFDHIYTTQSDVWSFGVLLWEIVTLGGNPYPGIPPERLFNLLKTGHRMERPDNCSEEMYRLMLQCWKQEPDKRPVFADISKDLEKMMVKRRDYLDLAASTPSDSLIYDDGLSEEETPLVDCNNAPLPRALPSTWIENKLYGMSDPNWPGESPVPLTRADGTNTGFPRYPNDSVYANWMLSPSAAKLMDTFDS
T1 sequence (Q96SW2 whole entry, the tested form may be a part): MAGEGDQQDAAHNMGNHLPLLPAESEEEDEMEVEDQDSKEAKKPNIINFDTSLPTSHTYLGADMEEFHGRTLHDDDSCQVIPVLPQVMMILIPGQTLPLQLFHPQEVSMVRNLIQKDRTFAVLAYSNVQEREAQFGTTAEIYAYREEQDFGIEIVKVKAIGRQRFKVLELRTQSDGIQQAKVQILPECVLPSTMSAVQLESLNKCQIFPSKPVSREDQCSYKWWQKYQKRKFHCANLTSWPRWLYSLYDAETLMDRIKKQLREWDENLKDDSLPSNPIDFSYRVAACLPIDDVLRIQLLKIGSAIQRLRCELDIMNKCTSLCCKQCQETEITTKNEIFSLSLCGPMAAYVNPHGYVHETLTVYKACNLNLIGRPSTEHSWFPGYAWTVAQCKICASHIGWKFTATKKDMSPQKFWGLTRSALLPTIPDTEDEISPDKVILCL
T1 sequence (Q16531 whole entry partner, the tested form may be a part): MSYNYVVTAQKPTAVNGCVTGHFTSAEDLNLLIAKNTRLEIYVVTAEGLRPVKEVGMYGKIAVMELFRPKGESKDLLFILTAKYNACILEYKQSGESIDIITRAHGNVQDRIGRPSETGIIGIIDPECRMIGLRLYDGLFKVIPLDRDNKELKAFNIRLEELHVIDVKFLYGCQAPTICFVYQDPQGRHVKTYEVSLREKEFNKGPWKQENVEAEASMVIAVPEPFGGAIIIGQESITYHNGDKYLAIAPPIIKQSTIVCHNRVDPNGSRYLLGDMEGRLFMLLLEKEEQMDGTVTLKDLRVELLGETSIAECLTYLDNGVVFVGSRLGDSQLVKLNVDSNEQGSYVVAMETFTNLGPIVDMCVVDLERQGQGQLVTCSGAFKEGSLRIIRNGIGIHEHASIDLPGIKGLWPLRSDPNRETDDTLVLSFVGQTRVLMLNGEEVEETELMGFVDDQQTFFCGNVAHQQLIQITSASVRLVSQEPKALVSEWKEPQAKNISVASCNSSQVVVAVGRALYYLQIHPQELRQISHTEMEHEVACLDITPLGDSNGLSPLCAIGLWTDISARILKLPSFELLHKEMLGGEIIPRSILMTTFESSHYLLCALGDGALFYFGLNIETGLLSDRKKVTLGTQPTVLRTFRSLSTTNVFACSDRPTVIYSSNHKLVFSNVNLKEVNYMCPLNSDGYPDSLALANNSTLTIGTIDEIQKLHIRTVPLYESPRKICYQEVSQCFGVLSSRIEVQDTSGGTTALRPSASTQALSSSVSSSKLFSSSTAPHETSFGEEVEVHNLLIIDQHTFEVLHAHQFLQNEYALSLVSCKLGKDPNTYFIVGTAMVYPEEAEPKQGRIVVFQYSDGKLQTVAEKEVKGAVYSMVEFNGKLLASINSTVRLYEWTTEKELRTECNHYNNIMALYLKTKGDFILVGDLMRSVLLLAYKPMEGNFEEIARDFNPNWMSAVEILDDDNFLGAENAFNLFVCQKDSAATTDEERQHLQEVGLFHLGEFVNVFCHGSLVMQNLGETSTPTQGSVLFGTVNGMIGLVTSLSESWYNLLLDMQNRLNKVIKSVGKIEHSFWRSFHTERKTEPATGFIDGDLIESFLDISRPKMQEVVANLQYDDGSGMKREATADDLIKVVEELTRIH

Compound | Dmax | DC50
CCOc1cc(-c2ccc(N3CCC(CN4CCN(C(=O)CCCCN5CCN(c6ccc7c(N8CCC(=O)NC8=O)nn(C)c7c6)CC5)CC4)(NC(=O)c4cc(F)ccc4F)CC3)nc2)c2c(C#N)cnn2c1 [Example 40, N-(1-(5-(3-cyano-6-ethoxypyrazolo[1,5-a]pyridin-4-yl)pyridin-2-yl)-4-((4-(5-(4-(3-(2,4-dioxotetrahydropyrimidin-1(2H)-yl)-1-methyl-1H-indazol-6-yl)piperazin-1-yl)pentanoyl)piperazin-1-yl)methyl)piperidin-4-yl)-2,5-difluorobenzamide] | > 90% | 2 to 10 nM
CCOc1cc(-c2ccc(N3CCC(CN4CCN(C(=O)CCCCCCN5CCN(c6ccc7c(N8CCC(=O)NC8=O)nn(C)c7c6)CC5)CC4)(NC(=O)c4cc(F)ccc4F)CC3)nc2)c2c(C#N)cnn2c1 [Example 41, N-(1-(5-(3-cyano-6-ethoxypyrazolo[1,5-a]pyridin-4-yl)pyridin-2-yl)-4-((4-(7-(4-(3-(2,4-dioxotetrahydropyrimidin-1(2H)-yl)-1-methyl-1H-indazol-6-yl)piperazin-1-yl)heptanoyl)piperazin-1-yl)methyl)piperidin-4-yl)-2,5-difluorobenzamide] | > 90% | < 2 nM
CCOc1cc(-c2ccc(N3CCC(CN4CCN(C(=O)CCCCCN5CCC(c6ccc7c(N8CCC(=O)NC8=O)nn(C)c7c6)CC5)CC4)(NC(=O)c4cc(F)ccc4F)CC3)nc2)c2c(C#N)cnn2c1 [Example 42, N-(1-(5-(3-cyano-6-ethoxypyrazolo[1,5-a]pyridin-4-yl)pyridin-2-yl)-4-((4-(6-(4-(3-(2,4-dioxotetrahydropyrimidin-1(2H)-yl)-1-methyl-1H-indazol-6-yl)piperidin-1-yl)hexanoyl)piperazin-1-yl)methyl)piperidin-4-yl)-2,5-difluorobenzamide] |  | < 2 nM
CCOc1cc(-c2ccc(N3CCC(CN4CCN(C(=O)CCCN5CCN(c6ccc7c(N8CCC(=O)NC8=O)nn(C)c7c6)CC5)CC4)(NC(=O)c4cc(F)ccc4F)CC3)nc2)c2c(C#N)cnn2c1 [Example 43, N-(1-(5-(3-cyano-6-ethoxypyrazolo[1,5-a]pyridin-4-yl)pyridin-2-yl)-4-((4-(4-(4-(3-(2,4-dioxotetrahydropyrimidin-1(2H)-yl)-1-methyl-1H-indazol-6-yl)piperazin-1-yl)butanoyl)piperazin-1-yl)methyl)piperidin-4-yl)-2,5-difluorobenzamide] | > 90% | < 2 nM
CCOc1cc(-c2ccc(N3CCC(CN4CCN(C(=O)CN5CCC(c6ccc7c(N8CCC(=O)NC8=O)nn(C)c7c6)CC5)CC4)(NC(=O)c4cc(F)ccc4F)CC3)nc2)c2c(C#N)cnn2c1 [Example 44, N-(1-(5-(3-cyano-6-ethoxypyrazolo[1,5-a]pyridin-4-yl)pyridin-2-yl)-4-((4-(2-(4-(3-(2,4-dioxotetrahydropyrimidin-1(2H)-yl)-1-methyl-1H-indazol-6-yl)piperidin-1-yl)acetyl)piperazin-1-yl)methyl)piperidin-4-yl)-2,5-difluorobenzamide] | 60 to 90% | < 2 nM
CCOc1cc(-c2ccc(N3CCC(COCc4cn(CCCCCCN5CCN(c6ccc7c(c6)CN(C6CCC(=O)NC6=O)C7=O)CC5)nn4)(NC(=O)c4cc(F)ccc4F)CC3)nc2)c2c(C#N)cnn2c1 (centres unmarked) [Example 47, N-[1-[5-(3-cyano-6-ethoxy-pyrazolo[1,5-a]pyridin-4-yl)-2-pyridyl]-4-[[1-[6-[4-[2-(2,6-dioxo-3-piperidyl)-1-oxo-isoindolin-5-yl]piperazin-1-yl]hexyl]triazol-4-yl]methoxymethyl]-4-piperidyl]-2,5-difluoro-benzamide] | > 90% | 2 to 10 nM
CCOc1cc(-c2ccc(N3CCC(COCc4cn(CCCCN5CCN(c6ccc7c(c6)CN(C6CCC(=O)NC6=O)C7=O)CC5)nn4)(NC(=O)c4cc(F)ccc4F)CC3)nc2)c2c(C#N)cnn2c1 (centres unmarked) [Example 48, N-[1-[5-(3-cyano-6-ethoxy-pyrazolo[1,5-a]pyridin-4-yl)-2-pyridyl]-4-[[1-[4-[4-[2-(2,6-dioxo-3-piperidyl)-1-oxo-isoindolin-5-yl]piperazin-1-yl]butyl]triazol-4-yl]methoxymethyl]-4-piperidyl]-2,5-difluoro-benzamide] | > 90% | 2 to 10 nM
CCOc1cc(-c2ccc(N3CCC(COCc4cn(CCN5CCN(c6ccc7c(c6)CN(C6CCC(=O)NC6=O)C7=O)CC5)nn4)(NC(=O)c4cc(F)ccc4F)CC3)nc2)c2c(C#N)cnn2c1 (centres unmarked) [Example 49, N-[1-[5-(3-cyano-6-ethoxy-pyrazolo[1,5-a]pyridin-4-yl)-2-pyridyl]-4-[[1-[2-[4-[2-(2,6-dioxo-3-piperidyl)-1-oxo-isoindolin-5-yl]piperazin-1-yl]ethyl]triazol-4-yl]methoxymethyl]-4-piperidyl]-2,5-difluoro-benzamide] | > 90% | 2 to 10 nM
CCOc1cc(-c2ccc(N3CCC(COCc4cn(CCCN5CCN(c6ccc7c(c6)CN(C6CCC(=O)NC6=O)C7=O)CC5)nn4)(NC(=O)c4cc(F)ccc4F)CC3)nc2)c2c(C#N)cnn2c1 (centres unmarked) [Example 50, N-(1-(5-(3-cyano-6-ethoxypyrazolo[1,5-a]pyridin-4-yl)pyridin-2-yl)-4-(((1-(3-(4-(2-(2,6-dioxopiperidin-3-yl)-1-oxoisoindolin-5-yl)piperazin-1-yl)propyl)-1H-1,2,3-triazol-4-yl)methoxy)methyl)piperidin-4-yl)-2,5-difluorobenzamide] | 60 to 90% | 2 to 10 nM
CCOc1cc(-c2ccc(N3CCC(Cc4ccccc4)(NC(=O)N4CCN(C(=O)CCN5CCC(c6ccc7c(c6)C(=O)N(C6CCC(=O)NC6=O)C7)CC5)CC4)CC3)nc2)c2c(C#N)cnn2c1 (centres unmarked) [Example 51, N-[4-benzyl-1-[5-(3-cyano-6-ethoxy-pyrazolo[1,5-a]pyridin-4-yl)-2-pyridyl]-4-piperidyl]-4-[3-[4-[2-(2,6-dioxo-3-piperidyl)-3-oxo-isoindolin-5-yl]-1-piperidyl]propanoyl]piperazine-1-carboxamide] | 60 to 90% | 10 to 100 nM
CCOc1cc(-c2ccc(N3CCC(Cc4ccccc4)(NC(=O)C4CCN(C(=O)CCN5CCC(c6ccc7c(c6)C(=O)N(C6CCC(=O)NC6=O)C7)CC5)CC4)CC3)nc2)c2c(C#N)cnn2c1 (centres unmarked) [Example 52, N-[4-benzyl-1-[5-(3-cyano-6-ethoxy-pyrazolo[1,5-a]pyridin-4-yl)-2-pyridyl]-4-piperidyl]-1-[3-[4-[2-(2,6-dioxo-3-piperidyl)-3-oxo-isoindolin-5-yl]-1-piperidyl]propanoyl]piperidine-4-carboxamide] | > 90% | 2 to 10 nM
CCOc1cc(-c2ccc(N3CCC(Cc4ccccc4)(NC(=O)CN4CCN(C(=O)CCN5CCC(c6ccc7c(c6)C(=O)N(C6CCC(=O)NC6=O)C7)CC5)CC4)CC3)nc2)c2c(C#N)cnn2c1 (centres unmarked) [Example 53, N-[4-benzyl-1-[5-(3-cyano-6-ethoxy-pyrazolo[1,5-a]pyridin-4-yl)-2-pyridyl]-4-piperidyl]-2-[4-[3-[4-[2-(2,6-dioxo-3-piperidyl)-3-oxo-isoindolin-5-yl]-1-piperidyl]propanoyl]piperazin-1-yl]acetamide] | 60 to 90% | 10 to 100 nM
